The target in data set [1] is T1, HER2 INS YVMA (Homo sapiens, UniProt P04626, INS775YVMA).
T1 construct: purchased DPF
Briefly: Lance Kinase Activity Assay, HER2 INS YVMA (Her2 Exon 20 INSYVMA Lance). To be noted: biochemical Lance assay. The class given is biochemical. The method in brief: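 IC50 was fitted to sigmoidal curves of TR-FRET signal (665 and 615 nm emission after 340 nm excitation) from an Eu anti-phospho antibody binding the phosphorylated ULight peptide. The ATP-started reaction ran 1 h at RT and was then quenched with 10 mM EDTA plus antibody for a further 1 h. Compounds were tested as 8-point, 3-fold dilutions.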

The target of data set [2] is Her2 Exon 20 INSYVMA Ba/F3 (Homo sapiens, UniProt P04626, DUP772-775, cells depend on it). Briefly: Her2 Exon 20 INSYVMA Ba/F3 CellTiter-Glo. The class given is cell-based. To be noted: CellTiter-Glo, 72 h, read-out: Her2 Exon 20 INSYVMA Ba/F3 CTG IC50. The method in brief: (§1)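 Ba/F3 cells dependent on the mutant kinase, seeded and grown 24 h, then treated with compound for 72 h at 37 °C, 5% CO2. Viability by CellTiter-Glo ATP luminescence versus DMSO and 10 μM staurosporine controls; IC50 from dose-response fit, plates accepted at Z′ ≥0.5; bins A ≤100 nM to E >10000 nM.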

Data set [3] concerns the target EGFR Exon 20 INSNPH Ba/F3 (Homo sapiens, UniProt P00533, DUP771-773, cells depend on it). The data set is described as follows: EGFR Exon 20 INSNPH Ba/F3 CellTiter-Glo. As to conditions: CellTiter-Glo, 72 h, read-out: EGFR Exon 20 INSNPH Ba/F3 CTG IC50. The class given is cell-based. Summed up: as §1
(In general: ATP-based viability assays read luminescence as a measure of living cells.)

The target of data set [4] is EGFR T790ML858R (Homo sapiens, UniProt P00533, L858R/T790M). The data set is described as follows: EGFR T790ML858R Lance assay. The class given is biochemical. As for the experimental part:
(§2) Inhibition is indicated as […] [nM] (“−”=not measured). Compounds having an activity designated as “A” provided an IC50≤100 nM; compounds having an activity designated as “B” provided an 100 nM<IC50≤500 nM; compounds having an activity designated as “C” provided an 500 nM<IC50≤1000 nM; compounds having an activity designated as “D” provided an 1000 nM<IC50≤100000 nM; and compounds having an activity designated as “E” provided an IC50>10000 nM.

The target of data set [5] is EGFR wt (Homo sapiens, UniProt P00533). Briefly: EGFR wt Lance assay. The class given is biochemical. On the procedure: as §2
Data set [6] relates to H1975. The data set is described as follows: H1975 CellTiter-Glo. The class given is cell-based. To be noted: Homo sapiens, NCI-H1975; 72 h compound incubation; read-out: H1975 CTG IC50. The method in brief:
(§3)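 In this viability format, compound-treated cells sit 72 h at 37° C. before ATP content is quantified by luminescence, and IC50 is taken from the fitted dose-response curve.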

The nature of data set [7]: Metabolic stability in mouse liver microsomes without cofactor NADPH. As to conditions: for Stability in presence of mouse liver microsomes without cofactor NADPH [% remaining after 50 min]: 3 μM test compound, 37° C., LC-MS/MS. The class given is in vitro ADME. From the text:
There are two major groups of enzyme reactions catalyzed by drug metabolizing enzymes, the so called Phase I and Phase II reactions. The basic processes in phase I reactions are oxidation, reduction and/or hydrolysis mostly catalyzed by the cytochrome P450 (CYP) family of enzymes.
The following procedures describe the determination of the in vitro Phase I metabolic stability of test compounds using liver microsomes by measuring compound depletion over time. Test compound at the concentration of 3 μM was incubated with the liver microsomes from the mouse species and the experiment was performed without NADPH. The depletion of the test compounds was measured over time up to 50 minutes at 37° C. by LC-MS/MS. Different compounds were tested under these conditions for microsomal stability (see Table 5).
A general note: Liver microsomes are a subcellular fraction often used to study metabolism.

Data set [8] has as its system A431. The data set is described as follows: A431 CellTiter-Glo. To be noted: Homo sapiens, A-431; 72 h compound incubation; read-out: A431 CTG IC50. The class given is cell-based. The method in brief:
as §3

A word on the pIC50: it is the negative decadic logarithm of the IC50, by convention in mol/L.

pIC50: −log10 of the molar value.

Sequence of EGFR wt (P00533 25-1210): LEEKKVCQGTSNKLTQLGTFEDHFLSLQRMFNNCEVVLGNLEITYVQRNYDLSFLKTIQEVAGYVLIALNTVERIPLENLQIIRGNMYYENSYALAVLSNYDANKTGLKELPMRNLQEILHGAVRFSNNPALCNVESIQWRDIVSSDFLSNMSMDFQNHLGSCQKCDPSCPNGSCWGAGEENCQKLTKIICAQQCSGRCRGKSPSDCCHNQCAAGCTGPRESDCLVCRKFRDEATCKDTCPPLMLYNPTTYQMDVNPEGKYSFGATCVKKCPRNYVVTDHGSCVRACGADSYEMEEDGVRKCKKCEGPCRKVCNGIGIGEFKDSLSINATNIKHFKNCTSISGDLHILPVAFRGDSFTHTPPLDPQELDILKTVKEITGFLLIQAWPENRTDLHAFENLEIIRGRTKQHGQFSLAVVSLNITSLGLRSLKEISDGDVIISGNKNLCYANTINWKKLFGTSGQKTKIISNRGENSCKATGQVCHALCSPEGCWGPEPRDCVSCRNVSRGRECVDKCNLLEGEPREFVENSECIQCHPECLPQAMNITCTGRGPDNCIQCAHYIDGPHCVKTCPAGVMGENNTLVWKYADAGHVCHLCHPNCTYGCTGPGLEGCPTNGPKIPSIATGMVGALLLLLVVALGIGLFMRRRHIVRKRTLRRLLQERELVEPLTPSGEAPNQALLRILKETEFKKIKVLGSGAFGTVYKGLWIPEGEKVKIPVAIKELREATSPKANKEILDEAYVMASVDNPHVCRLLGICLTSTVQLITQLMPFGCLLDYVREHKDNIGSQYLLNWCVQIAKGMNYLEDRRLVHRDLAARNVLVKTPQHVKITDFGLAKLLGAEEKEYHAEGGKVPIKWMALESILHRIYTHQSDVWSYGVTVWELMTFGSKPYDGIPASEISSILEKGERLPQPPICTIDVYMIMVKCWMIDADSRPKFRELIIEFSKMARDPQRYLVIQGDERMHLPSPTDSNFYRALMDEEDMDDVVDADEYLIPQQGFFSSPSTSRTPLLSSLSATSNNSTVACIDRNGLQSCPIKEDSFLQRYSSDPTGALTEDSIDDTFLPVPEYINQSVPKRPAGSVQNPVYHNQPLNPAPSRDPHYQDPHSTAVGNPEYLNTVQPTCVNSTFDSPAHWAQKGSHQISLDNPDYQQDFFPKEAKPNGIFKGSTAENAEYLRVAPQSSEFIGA
Sequence of EGFR Exon 20 INSNPH Ba/F3 (P00533 with tags, fused parts or gaps DUP771-773): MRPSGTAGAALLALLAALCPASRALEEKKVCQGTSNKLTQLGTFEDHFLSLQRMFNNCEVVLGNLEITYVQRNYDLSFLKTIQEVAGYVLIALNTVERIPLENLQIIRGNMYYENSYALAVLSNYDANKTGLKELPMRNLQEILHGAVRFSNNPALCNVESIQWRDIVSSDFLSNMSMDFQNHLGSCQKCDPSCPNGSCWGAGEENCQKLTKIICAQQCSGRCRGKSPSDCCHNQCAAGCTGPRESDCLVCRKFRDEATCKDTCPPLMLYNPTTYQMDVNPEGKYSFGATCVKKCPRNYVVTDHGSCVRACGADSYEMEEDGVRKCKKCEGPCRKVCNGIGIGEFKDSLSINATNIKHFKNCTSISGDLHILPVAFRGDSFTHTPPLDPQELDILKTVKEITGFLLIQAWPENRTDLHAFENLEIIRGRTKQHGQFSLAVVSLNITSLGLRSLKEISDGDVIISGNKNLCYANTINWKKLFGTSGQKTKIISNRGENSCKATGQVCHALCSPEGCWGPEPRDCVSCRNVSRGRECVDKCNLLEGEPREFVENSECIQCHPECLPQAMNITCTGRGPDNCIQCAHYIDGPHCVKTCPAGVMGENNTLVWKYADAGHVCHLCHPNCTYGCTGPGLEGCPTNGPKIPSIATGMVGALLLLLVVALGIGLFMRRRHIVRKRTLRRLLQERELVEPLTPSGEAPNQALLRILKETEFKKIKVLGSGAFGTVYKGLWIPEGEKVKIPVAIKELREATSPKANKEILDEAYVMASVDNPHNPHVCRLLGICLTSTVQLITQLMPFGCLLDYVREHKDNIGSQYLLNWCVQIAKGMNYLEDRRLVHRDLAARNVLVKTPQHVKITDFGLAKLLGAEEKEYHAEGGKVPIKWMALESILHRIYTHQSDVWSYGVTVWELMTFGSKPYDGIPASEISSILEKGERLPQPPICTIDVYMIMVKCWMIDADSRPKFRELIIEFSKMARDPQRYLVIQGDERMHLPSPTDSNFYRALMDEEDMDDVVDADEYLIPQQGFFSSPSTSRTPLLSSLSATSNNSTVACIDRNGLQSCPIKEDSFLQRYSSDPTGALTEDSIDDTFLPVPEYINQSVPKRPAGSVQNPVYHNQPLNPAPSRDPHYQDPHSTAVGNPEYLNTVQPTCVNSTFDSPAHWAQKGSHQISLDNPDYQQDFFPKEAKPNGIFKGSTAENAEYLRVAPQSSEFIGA
T1 sequence (P04626 with tags, fused parts or gaps INS775YVMA): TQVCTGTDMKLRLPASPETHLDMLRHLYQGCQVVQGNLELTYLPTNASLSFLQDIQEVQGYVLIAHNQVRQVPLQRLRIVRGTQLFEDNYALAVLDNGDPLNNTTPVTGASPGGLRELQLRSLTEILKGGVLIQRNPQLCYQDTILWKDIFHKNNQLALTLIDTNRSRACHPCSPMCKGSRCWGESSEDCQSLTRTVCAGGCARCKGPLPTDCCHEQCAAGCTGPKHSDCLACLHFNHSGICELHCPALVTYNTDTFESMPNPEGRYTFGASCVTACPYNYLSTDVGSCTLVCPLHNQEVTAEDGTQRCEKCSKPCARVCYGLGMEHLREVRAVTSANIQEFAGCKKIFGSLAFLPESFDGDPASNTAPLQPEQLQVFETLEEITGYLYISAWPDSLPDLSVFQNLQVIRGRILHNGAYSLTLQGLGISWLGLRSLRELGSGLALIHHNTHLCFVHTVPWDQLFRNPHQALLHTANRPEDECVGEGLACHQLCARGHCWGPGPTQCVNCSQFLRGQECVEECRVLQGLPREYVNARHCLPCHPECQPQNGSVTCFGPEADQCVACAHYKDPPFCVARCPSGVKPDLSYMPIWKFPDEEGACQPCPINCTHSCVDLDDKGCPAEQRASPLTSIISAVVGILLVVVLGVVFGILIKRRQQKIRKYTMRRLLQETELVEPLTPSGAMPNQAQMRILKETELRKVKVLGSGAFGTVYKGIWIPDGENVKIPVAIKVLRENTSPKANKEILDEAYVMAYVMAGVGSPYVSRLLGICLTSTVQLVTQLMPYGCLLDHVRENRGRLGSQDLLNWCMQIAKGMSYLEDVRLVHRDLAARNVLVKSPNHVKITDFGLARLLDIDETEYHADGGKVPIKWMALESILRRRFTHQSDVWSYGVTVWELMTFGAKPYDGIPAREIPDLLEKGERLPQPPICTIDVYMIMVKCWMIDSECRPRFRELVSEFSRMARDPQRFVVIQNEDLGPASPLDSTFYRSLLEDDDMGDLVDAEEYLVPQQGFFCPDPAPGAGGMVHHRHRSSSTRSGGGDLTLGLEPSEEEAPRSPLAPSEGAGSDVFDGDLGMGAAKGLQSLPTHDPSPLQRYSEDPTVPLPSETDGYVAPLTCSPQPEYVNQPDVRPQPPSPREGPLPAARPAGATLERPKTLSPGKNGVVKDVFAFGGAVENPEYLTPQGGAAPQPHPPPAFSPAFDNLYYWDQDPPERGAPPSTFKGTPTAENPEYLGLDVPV
Sequence of Her2 Exon 20 INSYVMA Ba/F3 (P04626 with tags, fused parts or gaps DUP772-775): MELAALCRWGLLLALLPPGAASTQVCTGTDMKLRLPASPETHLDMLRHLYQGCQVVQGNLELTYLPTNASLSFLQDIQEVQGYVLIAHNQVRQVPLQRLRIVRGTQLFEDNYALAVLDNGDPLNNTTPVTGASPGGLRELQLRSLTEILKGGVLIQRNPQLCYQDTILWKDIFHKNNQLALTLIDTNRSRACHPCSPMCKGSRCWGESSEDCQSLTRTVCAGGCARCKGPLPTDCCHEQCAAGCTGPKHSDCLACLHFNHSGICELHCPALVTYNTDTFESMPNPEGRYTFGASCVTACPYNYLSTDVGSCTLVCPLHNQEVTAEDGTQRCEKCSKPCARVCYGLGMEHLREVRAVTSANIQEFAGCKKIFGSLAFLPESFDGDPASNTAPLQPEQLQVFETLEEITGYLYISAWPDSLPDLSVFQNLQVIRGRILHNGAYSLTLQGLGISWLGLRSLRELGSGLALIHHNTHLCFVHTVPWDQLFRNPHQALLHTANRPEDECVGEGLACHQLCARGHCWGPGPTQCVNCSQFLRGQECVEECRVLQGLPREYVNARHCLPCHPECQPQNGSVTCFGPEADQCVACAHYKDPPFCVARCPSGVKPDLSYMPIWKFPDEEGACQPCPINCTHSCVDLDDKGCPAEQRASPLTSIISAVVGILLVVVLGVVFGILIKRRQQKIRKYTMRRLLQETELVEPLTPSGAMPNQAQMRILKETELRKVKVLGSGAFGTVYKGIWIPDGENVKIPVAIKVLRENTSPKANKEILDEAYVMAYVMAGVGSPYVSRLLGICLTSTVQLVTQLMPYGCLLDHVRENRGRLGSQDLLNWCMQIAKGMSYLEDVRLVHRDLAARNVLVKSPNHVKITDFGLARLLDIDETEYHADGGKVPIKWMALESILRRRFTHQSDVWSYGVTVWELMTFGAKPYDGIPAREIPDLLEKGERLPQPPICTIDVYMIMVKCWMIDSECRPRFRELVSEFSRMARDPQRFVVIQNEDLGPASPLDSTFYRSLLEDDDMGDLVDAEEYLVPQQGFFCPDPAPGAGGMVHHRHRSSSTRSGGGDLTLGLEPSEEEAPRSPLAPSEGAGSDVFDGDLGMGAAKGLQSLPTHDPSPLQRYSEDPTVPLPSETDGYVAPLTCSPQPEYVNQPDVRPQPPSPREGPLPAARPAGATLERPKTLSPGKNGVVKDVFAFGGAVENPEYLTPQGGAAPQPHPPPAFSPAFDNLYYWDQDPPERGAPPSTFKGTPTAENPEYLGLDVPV

`C=CC(=O)Nc1cc(-c2c(-c3cccc(N4CCOCC4)c3)[nH]c3nccc(Cl)c23)ccc1C` [Example 6, N-(5-(4-chloro-2-(3-morpholinophenyl)-1H-pyrrolo[2,3-b]pyridin-3-yl)-2-methylphenyl)acrylamide]: the negative logarithm of the IC50 (pIC50) was 6.00 to 6.30 in data set [1], no less than 7.00 in data set [4], no less than 7.00 in data set [5] and 6.30 to 7.00 in data set [6]. Further, the GI50 in data set [2] and in data set [3] was 500 to 1000 nM throughout. Further, the “Stability in presence of mouse liver microsomes without cofactor NADPH [% remaining after 50 min]” value in data set [7] was greater than 99 % remaining after 50 min.
As to `C=CC(=O)Nc1cc(-c2c(-c3cccc(CN4CCOCC4)c3)[nH]c3nccc(Cl)c23)ccc1C` [Example 7, N-(5-(4-chloro-2-(3-(morpholinomethyl)phenyl)-1H-pyrrolo[2,3-b]pyridin-3-yl)-2-methylphenyl)acrylamide], the pIC50 was 6.00 to 6.30 in data set [1], no less than 7.00 in data set [4], 6.30 to 7.00 in data set [5] and 6.30 to 7.00 in data set [6]. In addition, the GI50 in data set [2] was 500 to 1000 nM; in data set [3], 1000 to 10000 nM. The “Stability in presence of mouse liver microsomes without cofactor NADPH [% remaining after 50 min]” value in data set [7] is on record as greater than 99 % remaining after 50 min.
As to `C=CC(=O)Nc1cc(-c2c(-c3ccc(C(=O)N4CCN(C)CC4)cc3)[nH]c3nccc(Cl)c23)ccc1C` [Example 9, N-(5-(4-chloro-2-(4-(4-methylpiperazine-1-carbonyl)phenyl)-1H-pyrrolo[2,3-b]pyridin-3-yl)-2-methylphenyl)acrylamide], the pIC50 in data set [1], in data set [4], in data set [5] and in data set [6] was no less than 7.00 each time. The GI50 in data set [2] and in data set [3] was 100 to 500 nM each time. The “Stability in presence of mouse liver microsomes without cofactor NADPH [% remaining after 50 min]” value in data set [7] is given as greater than 99 % remaining after 50 min.
In the case of `C=CC(=O)Nc1cc(-c2c(-c3ccc(NS(C)(=O)=O)cc3)[nH]c3nccc(Cl)c23)ccc1C` [Example 12, N-(5-(4-chloro-2-(4-(methylsulfonamido)phenyl)-1H-pyrrolo[2,3-b]pyridin-3-yl)-2-methylphenyl)acrylamide], the pIC50 in data set [1] was 6.30 to 7.00; in data set [4] it was no less than 7.00; in data set [5], no less than 7.00; in data set [6], no less than 7.00. Also, the GI50 in data set [2] and in data set [3] was 100 to 500 nM each time. The “Stability in presence of mouse liver microsomes without cofactor NADPH [% remaining after 50 min]” value in data set [7] is reported as greater than 99 % remaining after 50 min.
In the case of `C=CC(=O)Nc1cc(-c2c(-c3ccc(NC(C)=O)cc3)[nH]c3nccc(Cl)c23)ccc1C` [Example 14, N-(5-(2-(4-acetamidophenyl)-4-chloro-1H-pyrrolo[2,3-b]pyridin-3-yl)-2-methylphenyl)acrylamide], the pIC50 in data set [1] was 6.30 to 7.00; in data set [4], no less than 7.00; in data set [5] it was no less than 7.00; in data set [6], 6.30 to 7.00. The GI50 in data set [2] and in data set [3] was 500 to 1000 nM in each case. Also, the “Stability in presence of mouse liver microsomes without cofactor NADPH [% remaining after 50 min]” value in data set [7] came to 68 % remaining after 50 min.
For `C=CC(=O)Nc1cc(-c2c(-c3ccc(N4CCN(C)CC4)cc3)[nH]c3ncc(C(=O)OC(C)C)cc23)ccc1C` [Example 117, isopropyl 3-(3-acrylamido-4-methylphenyl)-2-(4-(4-methylpiperazin-1-yl)phenyl)-1H-pyrrolo[2,3-b]pyridine-5-carboxylate 2,2,2-trifluoroacetate], the “Stability in presence of mouse liver microsomes without cofactor NADPH [% remaining after 50 min]” value in data set [7] worked out at 100 % remaining after 50 min.
Turning to `C=CC(=O)Nc1cc(-c2c(-c3ccc(N4CCN(C)CC4)cc3)[nH]c3ncc(NC(=O)C(C)C)cc23)ccc1C` [Example 200, N-(5-(5-isobutyramido-2-(4-(4-methylpiperazin-1-yl)phenyl)-1H-pyrrolo[2,3-b]pyridin-3-yl)-2-methylphenyl)acrylamide 2,2,2-trifluoroacetate], the pIC50 was no less than 7.00 in data set [1]; no less than 7.00 in data set [4]; no less than 7.00 in data set [5]; 4.00 to 6.00 in data set [6]; 4.00 to 6.00 in data set [8]. Besides, the GI50 in data set [2] and in data set [3] was 100 to 500 nM throughout.
`C=CC(=O)Nc1cc(-c2c(-c3ccc(N4CCN(C)CC4)cc3)[nH]c3ncc(NC(C)=O)cc23)ccc1C` [Example 201, N-(5-(5-acetamido-2-(4-(4-methylpiperazin-1-yl)phenyl)-1H-pyrrolo[2,3-b]pyridin-3-yl)-2-methylphenyl)acrylamide]: the pIC50 in data set [1] was no less than 7.00; in data set [4], no less than 7.00; in data set [5], no less than 7.00; in data set [6] it was 4.00 to 6.00; in data set [8] it was 4.00 to 6.00. Besides, the GI50 in data set [2] and in data set [3] was 1000 to 10000 nM in each case.
For the molecule `C=CC(=O)Nc1cc(-c2c(-c3ccc(N4CCN(C)CC4)cc3)[nH]c3ncc(C(=O)OC(C)C)cc23)c(C)cc1C` [Example 202, isoproyl 3-(5-acrylamido-2,4-dimethylphenyl)-2-(4-(4-methylpiperazin-1-yl)phenyl)-1H-pyrrolo[2,3-b]pyridine-5-carboxylate 2,2,2-trifluoroacetate], the pIC50 was 5.00 to 6.00 in data set [1]; 6.30 to 7.00 in data set [4]; no less than 7.00 in data set [5]; 4.00 to 6.00 in data set [6]; less than 5.00 in data set [8]. Besides, the GI50 in data set [2] and in data set [3] was 1000 to 10000 nM each time.
`C=CC(=O)NCc1cccc(-c2c(-c3ccc(N4CCN(C)CC4)cc3)[nH]c3ncc(C(=O)OC(C)C)cc23)c1` [Example 203, isopropyl 3-(3-(acrylamidomethyl)phenyl)-2-(4-(4-methylpiperazin-1-yl)phenyl)-1H-pyrrolo[2,3-b]pyridine-5-carboxylate 2,2,2-trifluoroacetate]: the pIC50 in data set [1] was 5.00 to 6.00; in data set [4], 6.00 to 6.30; in data set [5], 6.30 to 7.00; in data set [6], 4.00 to 6.00; in data set [8], 4.00 to 6.00. For the same molecule, the GI50 in data set [2] and in data set [3] was 1000 to 10000 nM each time.
With `C=CC(=O)Nc1cc(-c2c(-c3ccc(N(C)CCN(C)C)cc3)[nH]c3ncc(C(=O)OC(C)C)c(C)c23)ccc1C` [Example 204, isopropyl 3-(3-acrylamido-4-methylphenyl)-2-(4-((2-(dimethylamino)ethyl)(methyl)amino)phenyl)-4-methyl-1H-pyrrolo[2,3-b]pyridine-5-carboxylate], the pIC50 in data set [1] is no less than 7.00; in data set [4] it was no less than 7.00; in data set [5], no less than 7.00; in data set [6], 6.30 to 7.00; in data set [8], 4.00 to 6.00. For the same molecule, the GI50 in data set [2] and in data set [3] was no more than 100 nM in each case.
In the case of `C=CC(=O)Nc1cc(-c2c(-c3ccc(OCCN(C)C)cc3)[nH]c3ncc(C(=O)OC(C)C)c(C)c23)ccc1C` [Example 205, isopropyl 3-(3-acrylamido-4-methylphenyl)-2-(4-(2-(dimethylamino)ethoxy)phenyl)-4-methyl-1H-pyrrolo[2,3-b]pyridine-5-carboxylate], the pIC50 in data set [1] is no less than 7.00; in data set [4], no less than 7.00; in data set [5] it was no less than 7.00; in data set [6], 6.30 to 7.00; in data set [8], 4.00 to 6.00. The GI50 in data set [2] is 100 to 500 nM; in data set [3] it was no more than 100 nM.
Take `C=CC(=O)Nc1cccc(-c2c(-c3ccc(C4CCN(C)CC4)cc3)[nH]c3ncccc23)c1` [Reference 1, reference compound]: the “Stability in presence of mouse liver microsomes without cofactor NADPH [% remaining after 50 min]” value in data set [7] came to 33 % remaining after 50 min. Further, in data set [7] (mouse liver microsomes with and without the cofactor NADPH), the major metabolite observed result is reported as “hydrolysis of the acrylamide moiety”.
In the case of `C=CC(=O)Nc1cc(OC)cc(-c2c(-c3ccc(N4CCN(C)CC4)cc3)[nH]c3ncccc23)c1` [Reference 2, reference compound], the “Stability in presence of mouse liver microsomes without cofactor NADPH [% remaining after 50 min]” value in data set [7] worked out at 48 % remaining after 50 min.

These data come from patent publication US20220370440A1 (Lead Discovery Center GmbH, priority 2018, published 2022).
